Legend:
[1] = molecular target: MAPK/MAK/MRK overlapping kinase (Homo sapiens) (UniProt Q9UQ07); experiment: Inhibition of recombinant human MOK (1 to 343 residues) at 1 uM using RSRSRSRSRSRSRSR as substrate after 40 mins in presence of [gamma-33P]ATP by scintillation counting method
[2] = molecular target: Casein kinase II subunit alpha (Homo sapiens) (UniProt P68400); experiment: Inhibition of recombinant full-length human CK2 at 1 uM using RRRDDDSDDD as substrate after 40 mins in presence of [gamma-33P]ATP by scintillation counting method
[3] = system: Proto-oncogene tyrosine-protein kinase receptor Ret (Homo sapiens), P07949 [V804L]; experiment: Inhibition of recombinant human RET V804L mutant (658 to end residues) at 1 uM using KKKVSRSGLYRSPSMPENLNRPR as substrate after 40 mins in presence of [gamma-33P]ATP by scintillation counting method
[4] = molecular target: Serine/threonine-protein kinase DCLK2 (Homo sapiens) (UniProt Q8N568); experiment: Inhibition of recombinant human DCAMKL2 (376 to end residues) at 1 uM using KKLNRTLSFAEPG as substrate after 40 mins in presence of [gamma-33P]ATP by scintillation counting method
Mus musculus [5] = organism: Mus musculus; experiment: Inhibition of recombinant full-length mouse p110a/recombinant p65a (1 to 571 residues) at 1 uM using phosphatidylinositol 4,5-bisphosphate as substrate after 40 mins in presence of [gamma-33P]ATP by scintillation counting method
[6] = molecular target: Death-associated protein kinase 3 (Homo sapiens) (UniProt O43293); experiment: Inhibition of recombinant human ZIPK (1 to 290 residues) at 1 uM using KKLNRTLSFAEPG as substrate after 40 mins in presence of [gamma-33P]ATP by scintillation counting method
[7] = molecular target: Rhodopsin kinase GRK1 (Homo sapiens) (UniProt Q15835); experiment: Inhibition of recombinant full-length human GRK1 at 1 uM using KKKKERLLDDRHDSGLDSMKDEE as substrate after 40 mins in presence of [gamma-33P]ATP by scintillation counting method
[8] = system: Hepatocyte growth factor receptor (Homo sapiens), P08581 [M1268T]; experiment: Inhibition of recombinant human Met M1268T mutant (974 to end residues) at 1 uM using KKKGQEEEYVFIE as substrate after 40 mins in presence of [gamma-33P]ATP by scintillation counting method
[9] = molecular target: Serine/threonine-protein kinase 26 (Homo sapiens) (UniProt Q9P289); experiment: Inhibition of recombinant human MST4 (4 to 304 residues) at 1 uM using RLGRDKYKTLRQIRQ as substrate after 40 mins in presence of [gamma-33P]ATP by scintillation counting method
[10] = Metabolic stability in mouse liver microsomes assessed as compound remaining at 1 uM in presence of NADPH as cofactor measured after 30 mins by LC-MS/MS method; assay type: ADME, microsome; conditions: read-out: Stability
[11] = molecular target: Protein kinase C alpha type (Homo sapiens) (UniProt P17252); experiment: Inhibition of recombinant full-length human PKCalpha at 1 uM using histone H1 as substrate after 40 mins in presence of [gamma-33P]ATP by scintillation counting method
[12] = molecular target: Tyrosine-protein kinase ABL1 (Homo sapiens) (UniProt P00519); experiment: Inhibition of recombinant full-length human Abl at 1 uM using EAIYAAPFAKKK as substrate after 40 mins in presence of [gamma-33P]ATP by scintillation counting method
[13] = molecular target: Serine/threonine-protein kinase PAK 1 (Homo sapiens) (UniProt Q13153); experiment: Inhibition of recombinant human PAK1 (150 to end residues) at 1 uM using RRRLSFAEPG as substrate after 40 mins in presence of [gamma-33P]ATP by scintillation counting method
[14] = molecular target: Serine/threonine-protein kinase WNK3 (Homo sapiens) (UniProt Q9BYP7); experiment: Inhibition of recombinant human WNK3 (1 to 434 residues) at 1 uM using myelin basic protein as substrate after 40 mins in presence of [gamma-33P]ATP by scintillation counting method
Mus musculus [15] = experiment: AUC in mouse at 10 mg/kg, po; assay type: ADME, organism-based; conditions: in vivo
[16] = system: Epidermal growth factor receptor (Homo sapiens), P00533 [L861Q]; experiment: Inhibition of recombinant human EGFR L861Q mutant (696 to end residues) at 1 uM using poly(Glu,Tyr) 4:1 as substrate after 40 mins in presence of [gamma-33P]ATP by scintillation counting method
[17] = system: Epidermal growth factor receptor (Homo sapiens), P00533 [T790M]; experiment: Inhibition of recombinant human EGFR T790M mutant (696 to end residues) at 1 uM using GGMEDIYFEFMGGKKK as substrate after 40 mins in presence of [gamma-33P]ATP by scintillation counting method
[18] = molecular target: Tyrosine-protein kinase Fes/Fps (Homo sapiens) (UniProt P07332); experiment: Inhibition of recombinant human FES (2 to end residues) at 1 uM using poly(Glu,Tyr) 4:1 as substrate after 40 mins in presence of [gamma-33P]ATP by scintillation counting method
[19] = molecular target: Protein kinase C iota type (Homo sapiens) (UniProt P41743); experiment: Inhibition of recombinant full-length human PKCiota at 1 uM using ERMRPRKRQGSVRRRV as substrate after 40 mins in presence of [gamma-33P]ATP by scintillation counting method
[20] = molecular target: Muscle, skeletal receptor tyrosine-protein kinase (Homo sapiens) (UniProt O15146); experiment: Inhibition of recombinant human MUSK (530 to end residues) at 1 uM using myelin basic protein as substrate after 40 mins in presence of [gamma-33P]ATP by scintillation counting method
[21] = molecular target: Serine/threonine-protein kinase D3 (Homo sapiens) (UniProt O94806); experiment: Inhibition of recombinant full-length human PKD3 at 1 uM using KKLRRTLSVA as substrate after 40 mins in presence of [gamma-33P]ATP by scintillation counting method
[22] = molecular target: Serine/threonine-protein kinase Chk2 (Homo sapiens) (UniProt O96017); experiment: Inhibition of recombinant human CHK2 (5 to end residues) at 1 uM using KKKVSRSGLYRSPSMPENLNRPR as substrate after 40 mins in presence of [gamma-33P]ATP by scintillation counting method
[23] = molecular target: Serine/threonine-protein kinase PAK 4 (Homo sapiens) (UniProt O96013); experiment: Inhibition of recombinant human PAK4 (295 to end residues) at 1 uM using myelin basic protein as substrate after 40 mins in presence of [gamma-33P]ATP by scintillation counting method
Mus musculus [24] = experiment: Oral bioavailability in mouse at 10 mg/kg; assay type: ADME, organism-based; conditions: in vivo
[25] = system: Platelet-derived growth factor receptor alpha (Homo sapiens), P16234 [V561D]; experiment: Inhibition of recombinant human PDGFRalpha V561D mutant (550 to end residues) at 1 uM using GGMEDIYFEFMGGKKK as substrate after 40 mins in presence of [gamma-33P]ATP by scintillation counting method

Chain of Epidermal growth factor receptor (Homo sapiens), P00533 [L861Q] (P00533 whole entry L861Q): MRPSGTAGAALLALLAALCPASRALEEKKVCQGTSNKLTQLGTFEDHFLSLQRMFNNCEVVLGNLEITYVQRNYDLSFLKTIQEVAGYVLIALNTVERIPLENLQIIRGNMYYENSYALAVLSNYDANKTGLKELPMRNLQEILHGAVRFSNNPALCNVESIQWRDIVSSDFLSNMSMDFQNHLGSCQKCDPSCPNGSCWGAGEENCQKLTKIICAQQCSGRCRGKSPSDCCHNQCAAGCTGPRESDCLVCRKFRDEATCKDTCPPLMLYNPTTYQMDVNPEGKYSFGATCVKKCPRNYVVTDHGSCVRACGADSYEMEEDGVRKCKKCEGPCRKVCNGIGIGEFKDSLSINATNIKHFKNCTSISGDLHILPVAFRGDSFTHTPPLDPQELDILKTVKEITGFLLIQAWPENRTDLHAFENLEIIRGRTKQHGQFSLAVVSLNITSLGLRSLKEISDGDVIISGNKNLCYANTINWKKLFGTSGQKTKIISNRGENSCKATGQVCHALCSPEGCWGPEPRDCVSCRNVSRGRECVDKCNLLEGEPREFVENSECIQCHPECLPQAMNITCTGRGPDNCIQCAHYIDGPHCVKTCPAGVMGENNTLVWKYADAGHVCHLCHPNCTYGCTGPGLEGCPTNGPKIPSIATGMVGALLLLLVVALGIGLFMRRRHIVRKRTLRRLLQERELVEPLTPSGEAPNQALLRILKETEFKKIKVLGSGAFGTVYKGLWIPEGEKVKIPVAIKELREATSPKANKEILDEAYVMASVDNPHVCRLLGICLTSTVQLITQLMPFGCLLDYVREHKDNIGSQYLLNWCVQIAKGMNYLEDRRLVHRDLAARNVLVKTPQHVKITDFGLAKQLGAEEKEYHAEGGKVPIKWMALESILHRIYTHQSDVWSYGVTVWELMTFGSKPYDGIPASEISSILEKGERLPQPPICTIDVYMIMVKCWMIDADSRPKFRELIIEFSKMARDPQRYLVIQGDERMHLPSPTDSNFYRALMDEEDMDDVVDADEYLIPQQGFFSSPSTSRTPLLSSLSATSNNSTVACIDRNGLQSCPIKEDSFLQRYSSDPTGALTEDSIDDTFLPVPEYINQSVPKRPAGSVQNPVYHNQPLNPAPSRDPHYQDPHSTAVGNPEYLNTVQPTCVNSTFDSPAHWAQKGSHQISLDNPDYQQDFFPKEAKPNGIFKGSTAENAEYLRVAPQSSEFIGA
Chain of Protein kinase C iota type (Homo sapiens) (P41743 whole entry): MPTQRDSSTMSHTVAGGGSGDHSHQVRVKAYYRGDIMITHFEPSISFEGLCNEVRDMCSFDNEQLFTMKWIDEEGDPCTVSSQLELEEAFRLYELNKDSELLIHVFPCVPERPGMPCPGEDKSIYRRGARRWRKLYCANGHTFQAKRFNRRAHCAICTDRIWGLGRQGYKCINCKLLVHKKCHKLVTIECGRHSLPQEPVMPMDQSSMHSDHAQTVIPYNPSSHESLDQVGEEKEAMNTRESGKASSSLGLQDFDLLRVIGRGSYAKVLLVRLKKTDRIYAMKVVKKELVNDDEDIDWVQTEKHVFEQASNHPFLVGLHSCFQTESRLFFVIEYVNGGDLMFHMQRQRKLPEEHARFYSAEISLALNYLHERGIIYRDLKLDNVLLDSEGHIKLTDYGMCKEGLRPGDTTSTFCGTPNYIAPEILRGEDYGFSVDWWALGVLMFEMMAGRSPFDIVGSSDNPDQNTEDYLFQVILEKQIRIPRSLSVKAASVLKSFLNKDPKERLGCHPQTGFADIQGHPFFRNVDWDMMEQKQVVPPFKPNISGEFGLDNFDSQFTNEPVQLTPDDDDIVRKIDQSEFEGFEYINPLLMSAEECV
Chain of Death-associated protein kinase 3 (Homo sapiens) (O43293 whole entry, looked up, the tested form may be a part): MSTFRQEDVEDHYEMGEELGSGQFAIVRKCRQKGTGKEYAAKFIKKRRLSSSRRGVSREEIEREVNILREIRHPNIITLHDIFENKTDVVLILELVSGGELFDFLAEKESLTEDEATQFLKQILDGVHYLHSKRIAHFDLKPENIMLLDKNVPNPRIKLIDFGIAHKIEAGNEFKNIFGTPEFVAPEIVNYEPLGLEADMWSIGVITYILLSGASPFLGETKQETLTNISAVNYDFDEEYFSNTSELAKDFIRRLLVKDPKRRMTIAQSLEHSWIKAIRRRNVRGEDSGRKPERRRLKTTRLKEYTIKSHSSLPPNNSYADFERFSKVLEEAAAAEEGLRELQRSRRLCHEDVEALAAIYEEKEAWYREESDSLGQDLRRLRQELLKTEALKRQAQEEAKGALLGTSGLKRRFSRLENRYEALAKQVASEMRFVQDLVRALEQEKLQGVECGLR
Chain of Rhodopsin kinase GRK1 (Homo sapiens) (Q15835 whole entry): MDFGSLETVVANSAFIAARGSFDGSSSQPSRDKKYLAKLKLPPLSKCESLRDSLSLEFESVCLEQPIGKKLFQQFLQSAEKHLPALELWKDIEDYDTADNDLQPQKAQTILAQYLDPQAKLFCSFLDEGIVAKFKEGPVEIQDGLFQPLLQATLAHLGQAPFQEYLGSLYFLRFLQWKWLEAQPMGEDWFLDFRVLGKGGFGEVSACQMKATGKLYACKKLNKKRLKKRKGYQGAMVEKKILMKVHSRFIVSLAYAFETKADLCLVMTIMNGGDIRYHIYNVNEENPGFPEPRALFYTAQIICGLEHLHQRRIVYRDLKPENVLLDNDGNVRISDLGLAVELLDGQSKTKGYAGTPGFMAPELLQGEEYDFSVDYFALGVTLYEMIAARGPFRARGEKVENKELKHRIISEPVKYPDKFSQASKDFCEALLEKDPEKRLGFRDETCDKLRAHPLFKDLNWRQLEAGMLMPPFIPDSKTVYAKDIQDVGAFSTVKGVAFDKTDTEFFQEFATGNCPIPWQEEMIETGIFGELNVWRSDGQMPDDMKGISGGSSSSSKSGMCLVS
Chain of Casein kinase II subunit alpha (Homo sapiens) (P68400 whole entry, looked up): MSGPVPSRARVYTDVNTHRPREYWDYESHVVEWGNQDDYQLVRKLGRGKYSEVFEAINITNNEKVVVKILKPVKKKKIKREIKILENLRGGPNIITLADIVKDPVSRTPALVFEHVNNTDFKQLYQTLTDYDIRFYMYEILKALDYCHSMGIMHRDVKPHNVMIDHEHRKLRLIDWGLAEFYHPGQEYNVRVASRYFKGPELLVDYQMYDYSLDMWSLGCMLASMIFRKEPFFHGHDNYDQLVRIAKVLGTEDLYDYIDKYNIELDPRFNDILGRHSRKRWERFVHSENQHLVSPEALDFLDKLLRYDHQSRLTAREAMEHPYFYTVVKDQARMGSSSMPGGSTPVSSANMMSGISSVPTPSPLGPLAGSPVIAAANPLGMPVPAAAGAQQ
Chain of Serine/threonine-protein kinase PAK 4 (Homo sapiens) (O96013 whole entry, looked up): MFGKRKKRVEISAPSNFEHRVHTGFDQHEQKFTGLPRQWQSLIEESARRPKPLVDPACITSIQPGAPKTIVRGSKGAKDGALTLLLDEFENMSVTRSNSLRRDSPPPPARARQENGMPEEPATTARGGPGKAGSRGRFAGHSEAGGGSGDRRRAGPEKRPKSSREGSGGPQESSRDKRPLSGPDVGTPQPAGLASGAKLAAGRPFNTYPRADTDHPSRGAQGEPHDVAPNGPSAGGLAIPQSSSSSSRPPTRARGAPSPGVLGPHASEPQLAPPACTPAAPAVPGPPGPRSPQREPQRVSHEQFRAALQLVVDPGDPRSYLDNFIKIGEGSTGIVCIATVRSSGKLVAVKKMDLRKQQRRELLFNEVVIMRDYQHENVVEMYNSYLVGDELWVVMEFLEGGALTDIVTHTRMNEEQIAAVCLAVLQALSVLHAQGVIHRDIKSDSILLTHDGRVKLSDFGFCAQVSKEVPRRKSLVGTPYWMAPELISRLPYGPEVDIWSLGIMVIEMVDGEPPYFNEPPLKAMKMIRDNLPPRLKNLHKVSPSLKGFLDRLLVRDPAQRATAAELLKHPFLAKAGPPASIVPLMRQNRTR
Chain of Serine/threonine-protein kinase DCLK2 (Homo sapiens) (Q8N568 whole entry, the tested form may be a part): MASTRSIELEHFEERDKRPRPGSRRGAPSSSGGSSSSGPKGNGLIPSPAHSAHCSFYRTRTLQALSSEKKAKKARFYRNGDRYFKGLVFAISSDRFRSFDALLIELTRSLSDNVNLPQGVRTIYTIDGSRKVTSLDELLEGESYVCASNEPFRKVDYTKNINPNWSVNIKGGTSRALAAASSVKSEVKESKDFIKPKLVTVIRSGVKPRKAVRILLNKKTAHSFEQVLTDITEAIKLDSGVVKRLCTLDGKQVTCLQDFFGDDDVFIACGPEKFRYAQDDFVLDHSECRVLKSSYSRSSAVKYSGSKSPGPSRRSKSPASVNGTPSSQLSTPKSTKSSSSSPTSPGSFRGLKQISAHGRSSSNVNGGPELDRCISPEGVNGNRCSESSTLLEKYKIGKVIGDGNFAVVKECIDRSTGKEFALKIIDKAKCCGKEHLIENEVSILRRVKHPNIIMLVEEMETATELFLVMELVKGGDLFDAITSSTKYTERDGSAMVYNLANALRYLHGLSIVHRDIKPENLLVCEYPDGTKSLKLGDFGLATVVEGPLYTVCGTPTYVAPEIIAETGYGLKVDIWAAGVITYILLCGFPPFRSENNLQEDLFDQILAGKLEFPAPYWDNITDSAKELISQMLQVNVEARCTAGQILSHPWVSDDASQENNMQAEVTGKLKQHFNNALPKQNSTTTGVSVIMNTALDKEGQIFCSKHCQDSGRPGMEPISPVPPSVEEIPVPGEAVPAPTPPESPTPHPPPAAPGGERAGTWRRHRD
Chain of MAPK/MAK/MRK overlapping kinase (Homo sapiens) (Q9UQ07 whole entry, the tested form may be a part): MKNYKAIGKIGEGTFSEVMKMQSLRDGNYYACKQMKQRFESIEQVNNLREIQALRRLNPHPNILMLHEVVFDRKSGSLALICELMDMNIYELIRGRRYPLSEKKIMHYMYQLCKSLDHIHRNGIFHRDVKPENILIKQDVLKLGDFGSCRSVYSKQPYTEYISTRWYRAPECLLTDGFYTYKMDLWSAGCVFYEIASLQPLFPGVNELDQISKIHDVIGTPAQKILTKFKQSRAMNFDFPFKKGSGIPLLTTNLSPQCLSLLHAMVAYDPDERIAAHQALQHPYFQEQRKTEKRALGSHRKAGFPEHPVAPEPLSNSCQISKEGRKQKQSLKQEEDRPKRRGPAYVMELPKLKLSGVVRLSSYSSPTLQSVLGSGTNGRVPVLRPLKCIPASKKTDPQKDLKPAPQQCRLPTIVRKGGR

Q: Which results are given for `CS(=O)(=O)c1ccc(-n2nc(-c3cnc4[nH]ccc4c3)c3c(N)ncnc32)cc1`?
A: inhibition [1]: 59%; inhibition [2]: 2%; inhibition [3]: 20%; inhibition [4]: -1%; inhibition (Mus musculus [5]): 7%; inhibition [6]: 0%; inhibition [7]: 10%; inhibition [8]: -2%; inhibition [9]: -3%; remaining at 0.5 h, 1 µM [10]: 79%; inhibition [11]: -1%; inhibition [12]: 66%; inhibition [13]: 4%; inhibition [14]: 43%; AUC (Mus musculus [15]): 0.212 µM·h; inhibition [16]: 31%; inhibition [17]: 22%; inhibition [18]: -5%; inhibition [19]: 5%; inhibition [20]: -2%; inhibition [21]: 10%; inhibition [22]: -3%; inhibition [23]: 45%; F (Mus musculus [24]): 2.83%; inhibition [25]: 66%
